Q: With `CCCc1nn(-c2ccc(C(F)(F)F)cn2)cc1CCCOc1cc(CCC(=O)O)n(C)n1` [Example 45, 3-[1-methyl-3-(3-{3-propyl-1-[5-(trifluoromethyl)-2-pyridyl]-1H-pyrazol-4-yl}propoxy)-1H-pyrazol-5-yl]propionic acid] as the molecule, how does the melting point read?
A: 80 to 81 °C

Q: With `CCCc1nn(-c2ccc(C(F)(F)F)cn2)cc1CCCOc1ccccc1CC(=O)O` [Example 47, [2-(3-{3-propyl-1-[5-(trifluoromethyl)-2-pyridyl]-1H-pyrazol-4-yl}propoxy)phenyl]acetic acid] as the molecule, how does the melting point read?
A: 100 to 101 °C

Q: With `CCOc1nn(-c2ccc(C(F)(F)F)cn2)cc1CCCOc1cc(CCC(=O)O)n(C)n1` [Example 48, 3-[3-(3-{3-ethoxy-1-[5-(trifluoromethyl)-2-pyridinyl]-1H-pyrazol-4-yl}propoxy)-1-methyl-1H-pyrazol-5-yl]propanoic acid] as the molecule, how does the melting point read?
A: 137 to 138 °C

Q: Which melting point does the source give for `CC(C)c1nn(-c2ccc(C(F)(F)F)cn2)cc1CCCCOc1cc(CCC(=O)O)n(C)n1` [Example 50, 3-[3-(4-{3-isopropyl-1-[5-(trifluoromethyl)-2-pyridinyl]-1H-pyrazol-4-yl}butoxy)-1-methyl-1H-pyrazol-5-yl]propanoic acid] here?
A: 113 to 114 °C

Q: For `CC(C)c1nn(-c2ccc(C(F)(F)F)cn2)cc1CCCCOc1ccccc1CC(=O)O` [Example 52, [2-(4-{3-isopropyl-1-[5-(trifluoromethyl)-2-pyridinyl]-1H-pyrazol-4-yl}butoxy)phenyl]acetic acid], which melting point is on record?
A: 125 to 126 °C

Q: Which melting point does the source give for `CC(C)c1nn(-c2ccc(C(F)(F)F)cn2)cc1CCCCOc1ccc(CC(=O)O)cc1` [Example 53, [4-(4-{3-isopropyl-1-[5-(trifluoromethyl)-2-pyridinyl]-1H-pyrazol-4-yl}butoxy)phenyl]acetic acid] here?
A: 130 to 131 °C

Q: For `CC(C)c1nn(-c2ccc(C(F)(F)F)cn2)cc1CCCCOc1cccc(OC(C)(C)C(=O)O)c1` [Example 54, 2-[3-(4-{3-isopropyl-1-[5-(trifluoromethyl)-2-pyridinyl]-1H-pyrazol-4-yl}butoxy)phenoxy]-2-methylpropanoic acid], which melting point is on record?
A: 81 to 82 °C

Q: For `CC(C)c1nn(-c2ccc(C(F)(F)F)cn2)cc1CCCCOc1ccc(CCC(=O)O)cc1` [Example 55, 3-[4-(4-{3-isopropyl-1-[5-(trifluoromethyl)-2-pyridinyl]-1H-pyrazol-4-yl}butoxy)phenyl]propanoic acid], which melting point is on record?
A: 144 to 145 °C

Q: With `CCOc1nn(-c2ccc(C(F)(F)F)cn2)cc1CCOc1ccccc1CC(=O)O` [Example 57, [2-(2-{3-ethoxy-1-[5-(trifluoromethyl)-2-pyridinyl]-1H-pyrazol-4-yl}ethoxy)phenyl]acetic acid] as the molecule, how does the melting point read?
A: 134 to 135 °C

Q: For `CCCc1nn(-c2ccc(C(F)(F)F)cn2)cc1CCCCOc1nn(C)cc1CC(=O)O` [Example 61, [1-methyl-3-(4-{3-propyl-1-[5-(trifluoromethyl)-2-pyridinyl]-1H-pyrazol-4-yl}butoxy)-1H-pyrazol-4-yl]acetic acid], which melting point is on record?
A: 95 to 97 °C

Q: Which melting point does the source give for `CCCc1nn(-c2ccc(C(F)(F)F)cn2)cc1CCCCOc1ccc(CCC(=O)O)c(C)c1` [Example 64, 3-[2-methyl-4-(4-{3-propyl-1-[5-(trifluoromethyl)-2-pyridinyl]-1H-pyrazol-4-yl}butoxy)phenyl]propanoic acid] here?
A: 105 to 107 °C

Q: For `CCCc1nn(-c2ccc(C(F)(F)F)cn2)cc1CCCCOc1nn(-c2ccccc2)cc1CC(=O)O` [Example 66, [1-phenyl-3-(4-{3-propyl-1-[5-(trifluoromethyl)-2-pyridinyl]-1H-pyrazol-4-yl}butoxy)-1H-pyrazol-4-yl]acetic acid], which melting point is on record?
A: 114 to 115 °C

Q: With `CCCc1nn(-c2ccc(C(F)(F)F)cn2)cc1CCCOc1nn(-c2ccccc2)cc1CC(=O)O` [Example 67, [1-phenyl-3-(3-{3-propyl-1-[5-(trifluoromethyl)-2-pyridinyl]-1H-pyrazol-4-yl}propoxy)-1H-pyrazol-4-yl]acetic acid] as the molecule, how does the melting point read?
A: 123 to 124 °C

Q: With `CC(C)c1nn(-c2ccc(C(F)(F)F)cn2)cc1CCCCOc1nn(-c2ccccc2)cc1CC(=O)O` [Example 68, [3-(4-{3-isopropyl-1-[5-(trifluoromethyl)-2-pyridinyl]-1H-pyrazol-4-yl}butoxy)-1-phenyl-1H-pyrazol-4-yl]acetic acid] as the molecule, how does the melting point read?
A: 119 to 120 °C

Q: With `COc1cc(OCCCCc2cn(-c3ccc(C(F)(F)F)cn3)nc2C(C)C)ccc1CCC(=O)O` [Example 69, 3-[4-(4-{3-isopropyl-1-[5-(trifluoromethyl)-2-pyridinyl]-1H-pyrazol-4-yl}butoxy)-2-methoxyphenyl]propanoic acid] as the molecule, how does the melting point read?
A: 125 to 126 °C

Q: With `CCCc1nn(-c2ccc(C(F)(F)F)cn2)cc1CCCCOc1cc(CCC(=O)O)n(C)n1` [Example 70, 3-[1-methyl-3-(4-{3-propyl-1-[5-(trifluoromethyl)-2-pyridinyl]-1H-pyrazol-4-yl}butoxy)-1H-pyrazol-5-yl]propanoic acid] as the molecule, how does the melting point read?
A: 122 to 123 °C

Q: Which melting point does the source give for `O=C(O)CCc1cc(OCCCc2cn(-c3ccc(C(F)(F)F)cn3)nc2OCc2ccccc2)nn1-c1ccccc1` [Example 71, 3-[3-(3-{3-(benzyloxy)-1-[5-(trifluoromethyl)-2-pyridinyl]-1H-pyrazol-4-yl}propoxy)-1-phenyl-1H-pyrazol-5-yl]propanoic acid] here?
A: 159 to 161 °C

Q: With `CCOc1nn(-c2ccc(C(F)(F)F)cn2)cc1CCOc1ccc(CC(=O)O)cc1` [Example 73, [4-(2-{3-ethoxy-1-[5-(trifluoromethyl)-2-pyridinyl]-1H-pyrazol-4-yl}ethoxy)phenyl]acetic acid] as the molecule, how does the melting point read?
A: 142 to 143 °C

Q: For `CCOc1nn(-c2ccc(C(F)(F)F)cn2)cc1CCOc1cccc(OC(C)(C)C(=O)O)c1` [Example 74, 2-[3-(2-{3-ethoxy-1-[5-(trifluoromethyl)-2-pyridinyl]-1H-pyrazol-4-yl}ethoxy)phenoxy]-2-methylpropanoic acid], which melting point is on record?
A: 89 to 90 °C

Q: With `CCCc1nn(-c2ccc(C(F)(F)F)cn2)cc1CCCCn1cc(CCC(=O)[O-])c(OCC)n1.[Na+]` [Example 78, sodium 3-[3-ethoxy-1-(4-{3-propyl-1-[5-(trifluoromethyl)-2-pyridinyl]-1H-pyrazol-4-yl}butyl)-1H-pyrazol-4-yl]propanoate] as the molecule, how does the melting point read?
A: 250 to 251 °C

Q: For `CCCc1nn(-c2ccc(C(F)(F)F)cn2)cc1CCCOc1ccc(CC(=O)O)cc1OC` [Example 79, [3-methoxy-4-(3-{3-propyl-1-[5-(trifluoromethyl)-2-pyridyl]-1H-pyrazol-4-yl}propoxy)phenyl]acetic acid], which melting point is on record?
A: 121 to 122 °C

Q: With `CCCc1nn(-c2ccc(C(F)(F)F)cn2)cc1CCCOc1cc(CC(=O)O)ccc1OC` [Example 80, [4-methoxy-3-(3-{3-propyl-1-[5-(trifluoromethyl)-2-pyridinyl]-1H-pyrazol-4-yl}propoxy)phenyl]acetic acid] as the molecule, how does the melting point read?
A: 124 to 126 °C

Q: Which melting point does the source give for `CCCc1nn(-c2ccc(C(F)(F)F)cn2)cc1CCCOc1ccc(OC)c(CCC(=O)O)c1` [Example 81, 3-[2-methoxy-5-(3-{3-propyl-1-[5-(trifluoromethyl)-2-pyridinyl]-1H-pyrazol-4-yl}propoxy)phenyl]propanoic acid] here?
A: 104 to 106 °C

Q: For `CCCc1nn(-c2ccc(C(F)(F)F)cn2)cc1CCCOc1ccc(CCC(=O)O)cc1` [Example 82, 3-[4-(3-{3-propyl-1-[5-(trifluoromethyl)-2-pyridyl]-1H-pyrazol-4-yl}propoxy)phenyl]propionic acid], which melting point is on record?
A: 118 to 119 °C

Q: For `CCCc1nn(-c2ccc(C(F)(F)F)cn2)cc1CCCOc1ccccc1CCC(=O)O` [Example 83, 3-[2-(3-{3-propyl-1-[5-(trifluoromethyl)-2-pyridyl]-1H-pyrazol-4-yl}propoxy)phenyl]propionic acid], which melting point is on record?
A: 87 to 88 °C

Q: Which melting point does the source give for `CCCc1nn(-c2ccc(C(F)(F)F)cn2)cc1CCCOc1cccc(CCC(=O)O)c1` [Example 84, 3-[3-(3-{3-propyl-1-[5-(trifluoromethyl)-2-pyridyl]-1H-pyrazol-4-yl}propoxy)phenyl]propionic acid] here?
A: 97 to 98 °C

Q: Which melting point does the source give for `CCCc1nn(-c2ccc(C(F)(F)F)cn2)cc1CCCOc1nn(C)cc1CC(=O)O` [Example 87, [1-methyl-3-(3-{3-propyl-1-[5-(trifluoromethyl)-2-pyridyl]-1H-pyrazol-4-yl}propoxy)-1H-pyrazol-4-yl]acetic acid] here?
A: 119 to 120 °C

Q: For `CCCc1nn(-c2ccc(C(F)(F)F)cn2)cc1CCCCOc1ccc(CC(=O)O)cc1` [Example 88, [4-(4-{3-propyl-1-[5-(trifluoromethyl)-2-pyridyl]-1H-pyrazol-4-yl}butoxy)phenyl]acetic acid], which melting point is on record?
A: 121 to 122 °C

Q: Which melting point does the source give for `CCCc1nn(-c2ccc(C(F)(F)F)cn2)cc1CCCCOc1ccc(CCC(=O)O)c(OC)c1` [Example 89, 3-[2-methoxy-4-(4-{3-propyl-1-[5-(trifluoromethyl)-2-pyridyl]-1H-pyrazol-4-yl}butoxy)phenyl]propionic acid] here?
A: 91 to 92 °C

Q: For `CCCc1nn(-c2ccc(C(F)(F)F)cn2)cc1CCCOc1ccc(F)c(CC(=O)O)c1` [Example 90, [2-fluoro-5-(3-{3-propyl-1-[5-(trifluoromethyl)-2-pyridyl]-1H-pyrazol-4-yl}propoxy)phenyl]acetic acid], which melting point is on record?
A: 111 to 112 °C

Q: Which melting point does the source give for `CCCc1nn(-c2ccc(C(F)(F)F)cn2)cc1CCCOc1cc(CCC(=O)O)ccc1OC` [Example 93, 3-[4-methoxy-3-(3-{3-propyl-1-[5-(trifluoromethyl)-2-pyridyl]-1H-pyrazol-4-yl}propoxy)phenyl]propionic acid] here?
A: 147 to 148 °C

Q: Which melting point does the source give for `CCCc1nn(-c2ccc(C(F)(F)F)cn2)cc1CCCOc1ccc(CC(=O)O)c(OC)c1` [Example 95, [2-methoxy-4-(3-{3-propyl-1-[5-(trifluoromethyl)-2-pyridyl]-1H-pyrazol-4-yl}propoxy)phenyl]acetic acid] here?
A: 135 to 136 °C

Q: Which melting point does the source give for `CCCc1nn(-c2ccc(C(F)(F)F)cn2)cc1CCCOc1ccc(OC)c(CC(=O)O)c1` [Example 97, [2-methoxy-5-(3-{3-propyl-1-[5-(trifluoromethyl)-2-pyridinyl]-1H-pyrazol-4-yl}propoxy)phenyl]acetic acid] here?
A: 135 to 136 °C

Q: For `CCOc1nn(-c2ccccn2)cc1CCCOc1cccc(OC(C)(C)C(=O)O)c1` [Example 101, 2-(3-{3-[3-ethoxy-1-(2-pyridinyl)-1H-pyrazol-4-yl]propoxy}phenoxy)-2-methylpropanoic acid], which melting point is on record?
A: 99 to 101 °C
